Columns and labels:
5-LO [1] = assay: Test g) zymosan-induced liberation of LTB4 within air pouch of male rats; type: in vivo; details: 3 h; Test g), rat air pouch, oral
Experimental: g) An in vivo system involving measuring the effects of a test compound administered orally against the liberation of LTB4 induced by zymosan within an air pouch generated within the subcutaneous tissue of the back of male rats. The rats are anaesthetised and air pouches are formed by the injection of sterile air (20 ml). A further injection of air (10 ml) is similarly given after 3 days). At 6 days after the initial air injection the test compound is administered (usually orally as the suspension produced when a solution of the test compound in dimethylsulphoxide is added to hydroxypropylmethylcellulose), followed by the intrapouch injection of zymosan (1 ml of a 1% suspension in physiological saline). After 3 hours the rats are killed, the air pouches are lavaged with physiological saline, and the specific radioimmunoassay described above is used to assay LTB4 in the washings. This test provides an indication of inhibitory effects against 5-L0 in an inflammatory milieu.

5-LO [2] = assay: Test b) heparinised human blood challenged with A23187, LTB4 radioimmunoassay; type: cell-based; details: A23187, against LTB4
Experimental: b) An in vitro assay system involving incubating a test compound with heparinised human blood, prior to challenge with the calcium ionophore A23187 and then indirectly measuring the inhibitory effects on 5-L0 by assaying the amount of LTB4 using the specific radioimmunoassay described by Carey and Forder (F. Carey and R. A. Forder, Brit. J. Pharmacol. 1985, 84, 34P) which involves the use of a protein-LTB4 conjugate produced using the procedure of Young et alia (Prostaglandins, 1983, 26(4), 605-613). The effects of a test compound on the enzyme cyclooxygenase (which is involved in the alternative metabolic pathway for arachidonic acid and gives rise to prostaglandins, thromboxanes and related metabolites) may be measured at the same time using the specific radioimmunoassay for thromboxane B2 (TxB2) described by Carey and Forder (see above). This test provides an indication of the effects of a test compound against 5-L0 and also cylooxygenase in the presence of blood cells and proteins. It permits the selectivity of the inhibitory effect on 5-L0 or cyclooxygenase to be assessed.

5-LO [3] = assay: Test c) ex vivo assay: oral administration, blood collection, A23187 challenge, radioimmunoassay of LTB4; type: in vivo
Experimental: c) An ex vivo assay system, which is a variation of test b) above, involving administration of a test compound (usually orally as the suspension produced when a solution of the test compound in dimethylsulphoxide is added to carboxymethylcellulose), blood collection, heparinisation, challenge with A23187 and radioimmunoassay of LTB4 and TxB2. This test provides an indication of the bioavailability of a test compound as an inhibitor of 5-L0 or cyclooxygenase.

IC50 (5-LO [2]) [µM] | SMILES | ED50 (5-LO [1]) [mg/kg] | ED50 (5-LO [3]) [mg/kg]
< 0.15 | COC1(c2cccc(Sc3ccc4ccccc4c3)c2)CCOCC1 [4-methoxy-4-[3-(naphth-2-ylthio)phenyl]tetrahydropyran] | < 10 | 3
< 0.15 | CO[C@]1(c2cc(F)cc(Sc3ccc(C(C)(C)C)cc3)c2)CCO[C@@H](C)C1 [(2S,4R)-4-[5-fluoro-3-(4-tert-butylphenylthio)phenyl]-4-methoxy-2-methyltetrahydropyran] | 0.75 | 2
